Measurements as given in patent publication US6579859B1 (priority 2002, dated 2003).
“And” between values parts separate entries of the source, which are not always exact repeats. Equal entries are not always repeated.

Assays:
Format in all cases: cell-based
[1] = system: Tetrahymena (Trophozoite); test: Tetrahymena toxicity test (minimal lethal concentration); conditions: lowest concentration at which all Tetrahymena were dead in all replicate wells; replicate tests
Procedure: Tetrahymena cells from a commercial source were grown in PCB broth in a tissue culture flask. The cells were removed from the broth via centrifuge and suspended in Osterhout-tris buffer at a concentration of no greater than 60 cells per 10 micro liters. A standard 96 well test plate comprising successive 50% dilutions of this cellular solution per row was prepared. Chemicals to be tested were added to 3 adjacent wells. Organism viability was tested via observation through an inverted microscope at time zero and every 24 hours thereafter. Tetrahymena were judged viable if they were motile or had active contractile vacuoles. All organisms in a well had to be dead to have a negative reading. A positive reading indicated all or some viable orgasms in a well. The minimal lethal concentration (MLC) of the test materials to Tetrahymena was the lowest toxicant concentration in which all Tetrahymena were dead in all replicate wells.

Acanthamoeba Trophozoite = test: Acanthamoeba trophozoite toxicity test (minimal lethal concentration); conditions: 24 hours at 30°; all organisms dead in all replicate wells; replicate tests
Procedure: E. coli (ATCC #25922) grown in Difco Bacto nutrient agar and killed via UV light were used as nutrient for the Acanthamoeba. The killed E. coli were placed on a non-nutrient agar plate. 1-2 drops of washed Acanthamoeba Trophozoite (from Tennessee Technological University) were placed on the plate and incubated for 2-3 days at 30° C. An inoculum was prepared by placing about 2 ml of Osterhout-tris buffer onto the 2-3 day old plates. A sterile loop was used to dislodge the Trophozoites from the agar surface. The liquid was transferred to a sterile tube and diluted 1:10. 10 micro liters were placed on a slide and counted to confirm about 90 Acanthamoeba per 10 micro liters for the test. This solution was placed in a standard 96 well test plate with successive 50% dilutions per row. A 400 ppm solution of toxicants in Osterhout-tris buffer was prepared. Toxicants were added to 3 adjacent wells for testing. To avoid cross contamination, a well was skipped between each 3 replicate wells in every row and every other row skipped on the plate. The plate was incubated at 30° for 24 hours. An inverted microscope was used to observe the organisms in the wells. Cytoplasm will move in live amoeba and/or the contractile vacuoles will remain active. All organisms had to be dead in a well to have a negative reading. […]

Acanthamoeba (Cyst) = test: Acanthamoeba cyst toxicity test (minimal lethal concentration); conditions: 24 hours exposure at 30° C.; no trophozoites after 6 days; replicate tests
Procedure: E. coli (ATCC#25922) were grown in Difaco Bacto nutrient agar and killed via UV light for use as nutrient for the Acanthamoeba cysts. The killed E. coli were placed on a non-nutrient agar plate. 1-2 drops of washed Acanthamoeba (from Tennessee Technological University) from a 2-3 day old plate were placed on the plate and incubated for 2-3 days at 30° C. A biofilm was prepared by placing approximately 9 milliliters of the active E. coli culture in sterile coplin jars containing 4 cover slips and incubating over night. The cover slips were rinsed in Osterhout-tris buffer and placed on 2-3 day old Acanthamoeba trophozoite plates and incubated for 7 days. In 7 days, the trophozoites will exhaust the E. coli nutrients and form cysts. The cover slips were soaked in approximately 9 milliliters of Osterhout-tris buffer and the cover slips placed in coplin jars. 50 ppm dilutions of the biocides to be tested were added to the coplin jars containing the cover slips with cysts and the coplin jars were incubated at 30° C. for 24 hours.
After 24 hours, the test solutions were removed and the cover slips soaked in Osterhout-tris buffer for 30 minutes. The cover slips were placed on non-nutrient agar plates with live E. coli. The plates were observed using an inverted microscope every day for 6 days to see if trophozoites were present. If trophozoites appeared, the test was positive. […]

In the case of CCCCCCCCCCCCCC[P+](CCCC)(CCCC)CCCC.[Cl-] [TBTDPC, Tri-n-butyl-tetradecylphosphonium chloride], the “Minimal Lethal Concentration, Tetrahymena (Trophozoite)” value [1] is reported as 2.5 µg/mL, the “Minimal Lethal Concentration, Acanthanoeba (Trophozoite)” value (Acanthamoeba Trophozoite) is reported as 2.5 µg/mL and the “Minimal Lethal Concentration, Acanthamoeba (Cyst)” value (Acanthamoeba (Cyst)) is reported as 25 μg/ml (4×) and 40 μg/ml.
OC[P+](CO)(CO)CO.[Cl-] [THPS, Tetra kis hydroxymethyl phosphonium chloride, reference compound] was tested, and the “Minimal Lethal Concentration, Tetrahymena (Trophozoite)” value [1] was 28 µg/mL, the “Minimal Lethal Concentration, Acanthanoeba (Trophozoite)” value (Acanthamoeba Trophozoite) was 56 µg/mL and the “Minimal Lethal Concentration, Acanthamoeba (Cyst)” value (Acanthamoeba (Cyst)) was over 50 µg/mL.
